IC50 data for 2 compounds are collected here from ChEMBL document CHEMBL1201862, “PubChem BioAssay data set” (2004).

The source made the active and inactive calls. Cut-off read from the data, not from the text of the source: actives have a measured IC50 and inactives only a lower limit.

The target of this assay is Envelope glycoprotein gp160 (Human immunodeficiency virus 1, UniProt Q6QLK5). Put plainly: inhibitors of HIV fusion peptide binding, primary screen, biochemical, uHTS, fluorescence dequenching (AID 1986).
Envelope glycoprotein gp160, sequence (Q6QLK5 whole entry, the tested form may be a part): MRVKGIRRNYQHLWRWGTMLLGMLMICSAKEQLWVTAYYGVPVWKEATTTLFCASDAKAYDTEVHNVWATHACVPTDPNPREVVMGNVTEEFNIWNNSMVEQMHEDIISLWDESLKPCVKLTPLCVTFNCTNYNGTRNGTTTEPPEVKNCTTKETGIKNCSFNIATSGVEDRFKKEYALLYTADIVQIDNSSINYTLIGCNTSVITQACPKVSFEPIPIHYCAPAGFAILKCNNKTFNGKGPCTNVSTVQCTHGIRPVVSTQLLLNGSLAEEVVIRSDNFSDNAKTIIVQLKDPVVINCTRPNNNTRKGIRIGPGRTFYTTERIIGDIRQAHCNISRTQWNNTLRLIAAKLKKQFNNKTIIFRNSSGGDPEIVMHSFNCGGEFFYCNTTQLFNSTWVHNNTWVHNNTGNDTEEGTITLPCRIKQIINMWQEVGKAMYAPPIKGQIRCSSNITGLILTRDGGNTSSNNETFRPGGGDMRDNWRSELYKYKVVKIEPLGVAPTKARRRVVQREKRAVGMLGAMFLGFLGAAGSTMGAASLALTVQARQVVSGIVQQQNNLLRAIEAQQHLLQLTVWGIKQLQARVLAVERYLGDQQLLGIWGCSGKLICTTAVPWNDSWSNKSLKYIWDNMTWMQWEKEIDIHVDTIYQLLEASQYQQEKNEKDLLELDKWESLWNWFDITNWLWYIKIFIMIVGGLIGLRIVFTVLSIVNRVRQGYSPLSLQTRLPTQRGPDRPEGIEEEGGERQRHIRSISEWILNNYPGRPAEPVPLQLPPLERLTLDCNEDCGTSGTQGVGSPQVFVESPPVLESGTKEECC

For `N#Cc1c(O)nc(SCc2cccc(Cl)c2)nc1-c1ccccc1`, the half-maximal inhibitory concentration (IC50) (as a rule, the concentration that gives 50% inhibition) is 24.8 µM (active). The result for `O=C(O)c1cc(N/N=C/c2ccc(-c3ccccc3)cc2)ccc1Cl` reads 16.1 µM (active).
